#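 Cultured in 96-well plates, cells were exposed to test compound for 48 hours across five concentrations. Abbreviation: GI50, concentration required for 50% inhibition of growth.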 The source made the active and inactive calls. No stated cut-off is given here; in the data, active = GI50 up to about 1.1 µM and inactive = higher.
# How the values were obtained:
# Experiment in all cases: inhibition of tumour cell growth, NCI panel, 48 h
# SW-620 = tested on: SW-620
# SK-MEL-5 = tested on: SK-MEL-5
# EKVX = tested on: EKVX
# MOLT-4 = tested on: MOLT-4
# A549 = tested on: A549
# PC-3 = tested on: PC-3
# OVCAR-5 = tested on: OVCAR-5
# COLO 205 = tested on: COLO 205
# NCI-H23 = tested on: NCI-H23
# CAKI-1 = tested on: CAKI-1
# NCI-H522 = tested on: NCI-H522
# RPMI-8226 = tested on: RPMI-8226
# MDA-N = tested on: MDA-N
# LOX IMVI = tested on: LOX IMVI
# T47D = tested on: T47D
# HL-60 = tested on: HL-60
# NCI/ADR-RES = tested on: NCI/ADR-RES
# UACC-257 = tested on: UACC-257
# BT-549 = tested on: BT-549
# SR = tested on: SR
SMILES,GI50 (SW-620),GI50 (SK-MEL-5),GI50 (EKVX),GI50 (MOLT-4),GI50 (A549),GI50 (PC-3),GI50 (OVCAR-5),GI50 (COLO 205),GI50 (NCI-H23),GI50 (CAKI-1),GI50 (NCI-H522),GI50 (RPMI-8226),GI50 (MDA-N),GI50 (LOX IMVI),GI50 (T47D),GI50 (HL-60),GI50 (NCI/ADR-RES),GI50 (UACC-257),GI50 (BT-549),GI50 (SR)
C=C1C(=O)O[C@@H]2/C=C(C)/C=C\[C@@H]3O[C@@]3(C)C[C@@H](O)C12 (stereo partly drawn),4.02 µM (inactive),14.6 µM (inactive),3.89 µM (inactive),5.14 µM (inactive),47.5 µM (inactive),24.5 µM (inactive),33.2 µM (inactive),5.2 µM (inactive),13.2 µM (inactive),8.91 µM (inactive),4.23 µM (inactive),3.74 µM (inactive),13.2 µM (inactive),7.1 µM (inactive),7.19 µM (inactive),2.54 µM (inactive),4.51 µM (inactive),11.8 µM (inactive),,
O=C1/C(=C\c2ccc(F)cc2)CCOc2c1ccc1ccccc21,14.4 µM (inactive),21.2 µM (inactive),31.4 µM (inactive),7.67 µM (inactive),23.4 µM (inactive),33 µM (inactive),18.5 µM (inactive),19 µM (inactive),12.8 µM (inactive),21.1 µM (inactive),34 µM (inactive),3.3 µM (inactive),,,41.6 µM (inactive),14.9 µM (inactive),16.3 µM (inactive),19.5 µM (inactive),25.6 µM (inactive),
N#Cc1nc(/C=C/c2cccs2)oc1N,> 100 µM (inactive),51.1 µM (inactive),33.7 µM (inactive),45 µM (inactive),> 100 µM (inactive),97.1 µM (inactive),> 100 µM (inactive),,,65.3 µM (inactive),,27.8 µM (inactive),> 100 µM (inactive),> 100 µM (inactive),,12.6 µM (inactive),,> 100 µM (inactive),,13.1 µM (inactive)
CCN(CC)CCCOc1cc2c(cc1OC)C(=O)N1CCC[C@H]1C=N2,17.2 µM (inactive),19.6 µM (inactive),68.4 µM (inactive),19.5 µM (inactive),> 100 µM (inactive),42.5 µM (inactive),49.8 µM (inactive),19.8 µM (inactive),,18.2 µM (inactive),11.4 µM (inactive),21.1 µM (inactive),,16.4 µM (inactive),,30.1 µM (inactive),> 100 µM (inactive),53.7 µM (inactive),26.9 µM (inactive),29.2 µM (inactive)
O=Cc1ccc(-c2ccc(-c3ccc(CO)s3)o2)s1,2.22 µM (inactive),5.48 µM (inactive),23.5 µM (inactive),2.92 µM (inactive),14.8 µM (inactive),28.3 µM (inactive),,12.9 µM (inactive),21.9 µM (inactive),0.186 µM (active),15.7 µM (inactive),1.54 µM (inactive),,9.04 µM (inactive),2.21 µM (inactive),3.85 µM (inactive),10.6 µM (inactive),0.364 µM (active),6.24 µM (inactive),0.239 µM (active)
OCCN1CCN2C=C(C3CCCC4N(CCO)CCN34)CCC21 (stereo not drawn),23.6 µM (inactive),41.9 µM (inactive),> 69.7 µM (inactive),13.9 µM (inactive),> 100 µM (inactive),,> 100 µM (inactive),> 65.2 µM (inactive),43 µM (inactive),48 µM (inactive),> 44 µM (inactive),8.04 µM (inactive),,26.7 µM (inactive),,5.28 µM (inactive),,> 100 µM (inactive),,5.68 µM (inactive)
COc1ccc(-c2[nH]c3ccccc3c2CCNS(=O)(=O)c2ccc(C)cc2)cc1,> 10 µM (inactive),> 5.9 µM (inactive),> 7.93 µM (inactive),4.21 µM (inactive),6.05 µM (inactive),,> 10 µM (inactive),1.83 µM (inactive),> 10 µM (inactive),> 10 µM (inactive),7.93 µM (inactive),4.68 µM (inactive),,> 10 µM (inactive),,6.7 µM (inactive),,> 8.34 µM (inactive),,> 10 µM (inactive)
N#C/C(=C1\OC(=N)C(c2ccc(Cl)cc2)=C1O)c1ccc(Cl)cc1,13.2 µM (inactive),,17.7 µM (inactive),17.3 µM (inactive),20.5 µM (inactive),,2.99 µM (inactive),18.8 µM (inactive),13.6 µM (inactive),17.3 µM (inactive),12 µM (inactive),19 µM (inactive),,16 µM (inactive),,13.3 µM (inactive),,15 µM (inactive),,18.7 µM (inactive)
Cc1cc(C)c(N[S+]([O-])c2cccc([N+](=O)[O-])c2)c(C)c1 (stereo not drawn),> 100 µM (inactive),,,> 100 µM (inactive),> 100 µM (inactive),> 100 µM (inactive),> 100 µM (inactive),> 100 µM (inactive),> 100 µM (inactive),,,> 100 µM (inactive),,,> 100 µM (inactive),> 100 µM (inactive),> 100 µM (inactive),> 100 µM (inactive),> 100 µM (inactive),> 100 µM (inactive)
Oc1ccc(-c2csc(N/N=C3\NC/C(=C/c4ccc5c(c4)OCO5)S3)n2)cc1O,35.4 µM (inactive),9.82 µM (inactive),26.4 µM (inactive),5.45 µM (inactive),45.5 µM (inactive),26.4 µM (inactive),47.2 µM (inactive),29.1 µM (inactive),9.95 µM (inactive),32.4 µM (inactive),,,3.4 µM (inactive),11.6 µM (inactive),31.5 µM (inactive),> 10 µM (inactive),42 µM (inactive),14.6 µM (inactive),,
CCCCCCCCCC[C@@H](O)[C@H]1CC[C@@H]([C@H]2CC[C@H]([C@H](O)CCCCCCCCCC[C@@H]3CC(CC(C)=O)C(=O)O3)O2)O1 (stereo partly drawn),4.4 µM (inactive),0.01 µM (active),0.372 µM (active),4.13 µM (inactive),2.16 µM (inactive),4.05 µM (inactive),48.1 µM (inactive),1.52 µM (inactive),0.00223 µM (active),31 µM (inactive),12.8 µM (inactive),2.39 µM (inactive),,1.23 µM (inactive),1.7 µM (inactive),,0.167 µM (active),2.14 µM (inactive),2.48 µM (inactive),0.59 µM (active)
C#CCOCn1cc(C)c(=O)[nH]c1=O,> 100 µM (inactive),> 100 µM (inactive),> 100 µM (inactive),> 100 µM (inactive),> 100 µM (inactive),> 100 µM (inactive),> 100 µM (inactive),> 100 µM (inactive),> 100 µM (inactive),> 100 µM (inactive),,> 100 µM (inactive),> 100 µM (inactive),> 100 µM (inactive),> 100 µM (inactive),> 100 µM (inactive),> 100 µM (inactive),> 100 µM (inactive),,> 100 µM (inactive)
O=C(CSCC(=O)N/N=C/c1cccs1)N/N=C/c1cccs1,> 100 µM (inactive),76.4 µM (inactive),61.5 µM (inactive),64.7 µM (inactive),> 100 µM (inactive),30.6 µM (inactive),> 100 µM (inactive),,38.8 µM (inactive),46.6 µM (inactive),38.6 µM (inactive),42.4 µM (inactive),,> 100 µM (inactive),> 100 µM (inactive),> 100 µM (inactive),40 µM (inactive),> 100 µM (inactive),43.2 µM (inactive),
C#CCCCC(=C)C[C@@H]1OC(=O)[C@H](C)[C@@H]1O,> 100 µM (inactive),> 100 µM (inactive),> 100 µM (inactive),> 100 µM (inactive),> 100 µM (inactive),> 100 µM (inactive),> 100 µM (inactive),> 100 µM (inactive),> 100 µM (inactive),> 100 µM (inactive),,> 100 µM (inactive),> 100 µM (inactive),> 100 µM (inactive),> 100 µM (inactive),> 100 µM (inactive),> 100 µM (inactive),,,
O=c1c(O)c(-c2ccc(O)cc2O)oc2cc(O)cc(O)c12 [MORIN],> 100 µM (inactive),> 100 µM (inactive),30.3 µM (inactive),,> 100 µM (inactive),> 100 µM (inactive),> 100 µM (inactive),> 100 µM (inactive),> 100 µM (inactive),> 100 µM (inactive),> 10 µM (inactive),,> 100 µM (inactive),> 100 µM (inactive),> 100 µM (inactive),> 100 µM (inactive),> 100 µM (inactive),> 100 µM (inactive),,
Cn1nc(-c2ccccc2)c(N=[N+]=[N-])cc1=O,> 100 µM (inactive),> 100 µM (inactive),> 100 µM (inactive),> 100 µM (inactive),> 100 µM (inactive),,> 100 µM (inactive),> 100 µM (inactive),> 100 µM (inactive),> 100 µM (inactive),> 100 µM (inactive),> 100 µM (inactive),,> 100 µM (inactive),,> 100 µM (inactive),,> 100 µM (inactive),,> 100 µM (inactive)
CCCCCCCCCCCCCC(=O)OCC1OC(n2cc(F)c(=O)[nH]c2=O)C(NC(=O)OCc2ccccc2)C(OC(=O)CCCCCCCCCCCCC)C1O (stereo not drawn),> 100 µM (inactive),> 100 µM (inactive),> 100 µM (inactive),> 100 µM (inactive),> 100 µM (inactive),,25.6 µM (inactive),> 100 µM (inactive),> 100 µM (inactive),> 100 µM (inactive),> 100 µM (inactive),> 100 µM (inactive),,> 100 µM (inactive),,> 100 µM (inactive),,> 100 µM (inactive),,> 100 µM (inactive)
